Results: patent US11807625B2, “Capsid inhibitors for the prevention of HIV” (Gilead Sciences, Inc., priority 2019, dated 2023)
Like-named read-outs stand apart in the source and are kept apart here.

Assay: PK of compound of Formula (Ia) after single subcutaneous dose of solution formulations in beagle dogs
Format: in vivo
Details: male, beagle, dog, plasma, sc, 12 mg/kg; for AUC(0-t): male beagle dogs, single SC 12 mg/kg, mean ± SD, n = 3
Procedure: Formulations containing the compound of Formula (Ia), or a pharmaceutically acceptable salt thereof, were prepared as solutions and optionally administered subcutaneously or intramuscularly to rats, rabbits, and/or dogs.
A solution of about 400 mg/mL of the compound of Formula (Ia) having 17.00 w/w % water, 36.40 w/w % PEG 300, 35.20 w/w % of a sodium salt of a compound of Formula (Ia), 5.00 w/w % ethanol, and 6.40 w/w % poloxamer 188 was prepared. The solution was administered subcutaneously to male beagle dogs at a dose level of about 12 mg/kg and male Wistar Han rats at a dose level of about 50 mg/kg. The pharmacokinetic profiles were determined, and the results for dogs are summarized in Table and Table, while the results for rats are summarized in Table and Table below.
A solution of about 500 mg/mL of the compound of Formula (Ia) having 14.06 w/w % water, 30.12 w/w % PEG 300, […] of a sodium salt of a compound of Formula (Ia), 5.00 w/w % ethanol, and 6.40 w/w % poloxamer 188 was prepared. The solution was administered subcutaneously to male beagle dogs at a dose level of about 12 mg/kg and male Wistar Han rats at a dose level of about 50 mg/kg. The pharmacokinetic profiles were determined, and the results for dogs are summarized in Table and Table, while the results for rats are summarized in Table and Table below.
A solution of about 300 mg/mL of the compound of Formula (Ia) having 23.33 w/w % water, 48.99 w/w % PEG 300, 26.47 w/w % of a sodium salt of a compound of Formula (Ia), and 1.21 w/w % poloxamer 188 was prepared. The solution was administered subcutaneously to male beagle dogs at a dose level of about 6 mg/kg and male Wistar Han rats at a dose level of about 50 mg/kg. The pharmacokinetic profiles were determined, and the results for dogs are summarized in Table and Table, while the results for rats are summarized in Table and Table below.
A solution of about 400 mg/mL of the compound of Formula (Ia) having 18.80 w/w % water, 40.25 w/w % PEG 300, 34.38 w/w % of a sodium salt of a compound of Formula (Ia), 5.00 w/w % ethanol, and 1.57 w/w % poloxamer 188 was prepared. The solution was administered subcutaneously to male beagle dogs at a dose level of about 12 mg/kg and male Wistar Han rats at a dose level of about 50 mg/kg. The pharmacokinetic profiles were determined, and the results for dogs are summarized in Table and Table, while the results for rats are summarized in Table and Table below.
A solution of about 500 mg/mL of the compound of Formula (Ia) having 16.29 w/w % water, 34.88 w/w % PEG 300, 41.92 w/w % of a sodium salt of a compound of Formula (Ia), 5.00 w/w % ethanol, and 1.91 w/w % poloxamer 188 was prepared. The solution was administered subcutaneously to male beagle dogs at a dose level of about 12 mg/kg and male Wistar Han rats at a dose level of about 50 mg/kg. The pharmacokinetic profiles were determined, and the results for dogs are summarized in Table and Table, while the results for rats are summarized in Table and Table below.
A solution of about 400 mg/mL of the compound of Formula (Ia) having 20.90 w/w % water, 44.72 w/w % PEG 300, and 34.38 w/w % of a sodium salt of a compound of Formula (Ia) was prepared. The solution was administered subcutaneously to male beagle dogs at a dose level of about 12 mg/kg and male Wistar Han rats at a dose level of about 50 mg/kg. The pharmacokinetic profiles were determined, and the results for dogs are summarized in Table and Table, while the results for rats are summarized in Table and Table below.
A solution of about 400 mg/mL of the compound of Formula (Ia) having 19.90 w/w % water, 42.59 w/w % PEG 300, 34.38 w/w % of a sodium salt of a compound of Formula (Ia), and 3.13 w/w % poloxamer 188 was prepared. The solution was administered subcutaneously to male beagle dogs at a dose level of about 12 mg/kg and male Wistar Han rats at a dose level of about 50 mg/kg. […]

[1] = beagle dogs, SC 12 mg/kg, 500 mg/mL solution X (5.00% ethanol, 1.91% poloxamer 188), Mean n = 3
[2] = beagle dogs, SC 12 mg/kg, 500 mg/mL solution X (5.00% ethanol, 1.91% poloxamer 188), animals #1-#3

## CC(C)(C#Cc1ccc(-c2ccc(Cl)c3c(NS(C)(=O)=O)nn(CC(F)(F)F)c23)c([C@H](Cc2cc(F)cc(F)c2)NC(=O)Cn2nc(C(F)(F)F)c3c2C(F)(F)[C@@H]2C[C@H]32)n1)S(C)(=O)=O [compound of Formula (Ia)]
[1]
  concentration at 24 h: 39.7 nM
  concentration at 48 h: 44.7 nM
[2]
  concentration at 24 h: 32.8 nM
  concentration at 48 h: 39.8 nM
Beagle dogs, SC 12 mg/kg, 500 mg/mL solution X (5.00% ethanol, 1.91% poloxamer 188), 72.0 h, Mean n = 3
  concentration at 72 h: 36.5 nM
Beagle dogs, SC 12 mg/kg, 500 mg/mL solution X (5.00% ethanol, 1.91% poloxamer 188), 96.0 h, Mean n = 3
  concentration at 96 h: 31.4 nM
Beagle dogs, SC 12 mg/kg, 500 mg/mL solution X (5.00% ethanol, 1.91% poloxamer 188), 168 h, Mean n = 3
  concentration at 168 h: 39.2 nM
Beagle dogs, SC 12 mg/kg, 500 mg/mL solution X (5.00% ethanol, 1.91% poloxamer 188), 336 h, Mean n = 3
  concentration at 336 h: 50.3 nM
Beagle dogs, SC 12 mg/kg, 500 mg/mL solution X (5.00% ethanol, 1.91% poloxamer 188), 504 h, Mean n = 3
  concentration at 504 h: 114 nM
Beagle dogs, SC 12 mg/kg, 500 mg/mL solution X (5.00% ethanol, 1.91% poloxamer 188), 672 h, Mean n = 3
  concentration at 672 h: 110 nM
Beagle dogs, SC 12 mg/kg, 500 mg/mL solution X (5.00% ethanol, 1.91% poloxamer 188), 840 h, Mean n = 3
  concentration at 840 h: 61.4 nM
Beagle dogs, SC 12 mg/kg, 500 mg/mL solution X (5.00% ethanol, 1.91% poloxamer 188), 1008 h, Mean n = 3
  concentration at 1008 h: 68.3 nM
Beagle dogs, SC 12 mg/kg, 500 mg/mL solution X (5.00% ethanol, 1.91% poloxamer 188), 1344 h, Mean n = 3
  concentration at 1344 h: 48.5 nM
Beagle dogs, SC 12 mg/kg, 500 mg/mL solution X (5.00% ethanol, 1.91% poloxamer 188), 1680 h, Mean n = 3
  concentration at 1680 h: 37.7 nM
Beagle dogs, SC 12 mg/kg, 500 mg/mL solution X (5.00% ethanol, 1.91% poloxamer 188), 2016 h, Mean n = 3
  concentration at 2016 h: 23.4 nM
Beagle dogs, SC 12 mg/kg, 500 mg/mL solution X (5.00% ethanol, 1.91% poloxamer 188), 2352 h, Mean n = 3
  concentration at 2352 h: 24.3 nM
Beagle dogs, SC 12 mg/kg, 500 mg/mL solution X (5.00% ethanol, 1.91% poloxamer 188), 2688 h, Mean n = 3
  concentration at 2688 h: 14.6 nM
Beagle dogs, SC 12 mg/kg, 500 mg/mL solution X (5.00% ethanol, 1.91% poloxamer 188), 3024 h, Mean n = 3
  concentration at 3024 h: 14.6 nM
Beagle dogs, SC 12 mg/kg, 500 mg/mL solution X (5.00% ethanol, 1.91% poloxamer 188), 3360 h, Mean n = 3
  concentration at 3360 h: 9.6 nM
Beagle dogs, SC 12 mg/kg, 500 mg/mL solution X (5.00% ethanol, 1.91% poloxamer 188), 3696 h, Mean n = 3
  concentration at 3696 h: 8.6 nM
Beagle dogs, SC 12 mg/kg, 500 mg/mL solution X (5.00% ethanol, 1.91% poloxamer 188), 4032 h, Mean n = 3
  concentration at 4032 h: 8.3 nM
Beagle dogs, SC 12 mg/kg, 500 mg/mL solution X (5.00% ethanol, 1.91% poloxamer 188), 4368 h, Mean n = 3
  concentration at 4368 h: 6.4 nM
400 mg/mL solution AA (6.25% poloxamer 188), read-out: AUC0-24 h
  AUC(0-t): 1.57 ± 0.56 µM·h
400 mg/mL solution AA (6.25% poloxamer 188), read-out: AUC0-168 h
  AUC(0-t): 22.2 ± 7 µM·h
400 mg/mL solution AA (6.25% poloxamer 188), read-out: AUC0-336 h
  AUC(0-t): 46.3 ± 9.4 µM·h
400 mg/mL solution AA (6.25% poloxamer 188), read-out: AUC0-672 h
  AUC(0-t): 108 ± 26 µM·h
400 mg/mL solution AA (6.25% poloxamer 188), read-out: AUC0-1008 h
  AUC(0-t): 149 ± 31 µM·h
400 mg/mL solution AA (6.25% poloxamer 188), read-out: AUC0-1344 h
  AUC(0-t): 171 ± 33 µM·h
400 mg/mL solution AA (6.25% poloxamer 188), read-out: AUC0-2352 h
  AUC(0-t): 195 ± 35 µM·h
400 mg/mL solution AA (6.25% poloxamer 188), read-out: AUC0-3024 h
  AUC(0-t): 200 ± 35 µM·h
400 mg/mL solution AA (6.25% poloxamer 188), read-out: AUC0-3696 h
  AUC(0-t): 208 ± 47 µM·h
400 mg/mL solution Y (water, PEG 300), read-out: AUC0-24 h
  AUC(0-t): 0.996 ± 0.513 µM·h
400 mg/mL solution Y (water, PEG 300), read-out: AUC0-168 h
  AUC(0-t): 9.61 ± 2.6 µM·h
400 mg/mL solution Y (water, PEG 300), read-out: AUC0-336 h
  AUC(0-t): 27.4 ± 1.9 µM·h
400 mg/mL solution Y (water, PEG 300), read-out: AUC0-672 h
  AUC(0-t): 100 ± 7.2 µM·h
400 mg/mL solution Y (water, PEG 300), read-out: AUC0-1008 h
  AUC(0-t): 146 ± 11 µM·h
400 mg/mL solution Y (water, PEG 300), read-out: AUC0-1344 h
  AUC(0-t): 172 ± 16 µM·h
400 mg/mL solution Y (water, PEG 300), read-out: AUC0-2352 h
  AUC(0-t): 200 ± 19 µM·h
400 mg/mL solution Y (water, PEG 300), read-out: AUC0-3024 h
  AUC(0-t): 207 ± 19 µM·h
400 mg/mL solution Y (water, PEG 300), read-out: AUC0-3696 h
  AUC(0-t): 210 ± 18 µM·h
400 mg/mL solution Z (3.13% poloxamer 188), read-out: AUC0-24 h
  AUC(0-t): 1.02 ± 0.58 µM·h
400 mg/mL solution Z (3.13% poloxamer 188), read-out: AUC0-168 h
  AUC(0-t): 10.6 ± 4.9 µM·h
400 mg/mL solution Z (3.13% poloxamer 188), read-out: AUC0-336 h
  AUC(0-t): 30.1 ± 14.8 µM·h
400 mg/mL solution Z (3.13% poloxamer 188), read-out: AUC0-672 h
  AUC(0-t): 92.7 ± 31 µM·h
400 mg/mL solution Z (3.13% poloxamer 188), read-out: AUC0-1008 h
  AUC(0-t): 125 ± 31 µM·h
400 mg/mL solution Z (3.13% poloxamer 188), read-out: AUC0-1344 h
  AUC(0-t): 147 ± 32 µM·h
400 mg/mL solution Z (3.13% poloxamer 188), read-out: AUC0-2352 h
  AUC(0-t): 170 ± 33 µM·h
